Laboratory results from patent publication US10597388B2, “Pyridazinone herbicides” (FMC CORPORATION, priority 2014, dated 2020).

What was measured:
Assay in all cases: Test E greenhouse herbicide test, pre- and postemergence
Type in all cases: in vivo
[1] = test system: velvetleaf (Abutilon theophrasti); details: Preemergence
Procedure, shortened: (§1)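 Visual ratings, 0 for no effect up to 100 for complete control, were taken relative to controls 14 to 21 d after greenhouse treatment. Applications used a surfactant-containing non-phytotoxic solvent formulation, sprayed either preemergence on silt loam-sown seed or postemergence on 1- to 4-leaf plants 2-18 cm tall in peat-based potting medium.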

[2] = test system: sandbur (southem sandbur, Cenchrus echinatus)
Procedure, shortened: as §1

[3] = test system: surinam grass (Brachiaria decumbens); details: Preemergence
Procedure, shortened: as §1

[4] = test system: arrowleaf sida (Sida rhombifolia)
Procedure, shortened: as §1

[5] = test system: kochia (Kochia scoparia)
Procedure, shortened: as §1

[6] = test system: foxtail, giant (giant foxtail, Setaria faberii); details: Preemergence
Procedure, shortened: as §1

[7] = test system: panicum, fall (fall panicum, Panicum dichotomiflorum)
Procedure, shortened: as §1

[8] = test system: nightshade (eastern black nightshade, Solanum ptycanthum); details: Preemergence
Procedure, shortened: as §1

[9] = test system: crabgrass, Brazilian (Brazilian crabgrass, Digitaria horizontalis)
Procedure, shortened: as §1

[10] = test system: barnyardgrass (Echinochloa crus-galli)
Procedure, shortened: as §1

[11] = test system: corn (Zea mays)
Procedure, shortened: as §1

[12] = test system: crabgrass, large (large crabgrass, Digitaria sanguinalis); details: Preemergence
Procedure, shortened: as §1

[13] = test system: Italian ryegrass (Lolium multiflorum)
Procedure, shortened: as §1

[14] = test system: foxtail, green (green foxtail, Setaria viridis); details: Preemergence
Procedure, shortened: as §1

[15] = test system: goosegrass (Eleusine indica); details: Preemergence
Procedure, shortened: as §1

[16] = test system: lambsquarters (Chenopodium album); details: Preemergence
Procedure, shortened: as §1

[17] = test system: horseweed (Conyza canadensis)
Procedure, shortened: as §1

[18] = 62 g ai/ha, scale 0 to 100 (0 no effect, 100 complete control)
[19] = 125 g ai/ha, scale 0 to 100 (0 no effect, 100 complete control)
[20] = 31 g ai/ha, scale 0 to 100, 0 no effect, 100 complete control
[21] = 250 g ai/ha, visual, scale 0 no effect to 100 complete control
[22] = 62 g ai/ha, Preemergence, scale 0 to 100 (0 no effect, 100 complete control)
[23] = 125 g ai/ha, Postemergence, scale 0 to 100 (0 no effect, 100 complete control)
[24] = 125 g ai/ha, Preemergence, scale 0 to 100 (0 no effect, 100 complete control)
[25] = 250 g ai/ha, Postemergence, scale 0 to 100 (0 no effect, 100 complete control)
[26] = Postemergence, 31 g ai/ha, visual, scale 0 no effect to 100 complete control
[27] = Preemergence, 31 g ai/ha, scale 0 to 100, 0 no effect, 100 complete control
[28] = Preemergence, 250 g ai/ha, visual, scale 0 no effect to 100 complete control
[29] = 62 g ai/ha, Postemergence, scale 0 to 100 (0 no effect, 100 complete control)

In the case of `CCOC(=O)Oc1c(C)nn(C)c(=O)c1-c1c(C)sc2ccc(C)cc12` [Compound 82], the “Plant response rating, Velvetleaf” value [1, 18] is reported as 75, the “Plant response rating, Velvetleaf” value [1, 19] is reported as 95 and the “Plant response rating, Velvetleaf” value [1, 20] is reported as 0. For the same compound, the “Plant response rating, Velvetleaf” value [1, 21] was 98, the “Plant response rating, Sandbur” value [2, 22] was 35 and the “Plant response rating, Sandbur” value [2, 23] was 70. For the same compound, the “Plant response rating, Sandbur” value [2, 24] was 60, the “Plant response rating, Sandbur” value [2, 25] was 75 and the “Plant response rating, Sandbur” value [2, 26] was 50. The “Plant response rating, Sandbur” value [2, 27] was 0, the “Plant response rating, Sandbur” value [2, 28] was 75 and the “Plant response rating, Surinam Grass” value [3, 18] was 65. The “Plant response rating, Surinam Grass” value [3, 19] was 85, the “Plant response rating, Surinam Grass” value [3, 20] was 35 and the “Plant response rating, Surinam Grass” value [3, 21] was 90. For the same compound, the “Plant response rating, Arrowleaf Sida” value [4, 29] was 70, the “Plant response rating, Arrowleaf Sida” value [4, 22] was 70 and the “Plant response rating, Arrowleaf Sida” value [4, 23] was 80. The “Plant response rating, Arrowleaf Sida” value [4, 24] was 85, the “Plant response rating, Arrowleaf Sida” value [4, 25] was 90 and the “Plant response rating, Arrowleaf Sida” value [4, 26] was 65. For the same compound, the “Plant response rating, Arrowleaf Sida” value [4, 27] was 20, the “Plant response rating, Arrowleaf Sida” value [4, 28] was 95 and the “Plant response rating, Kochia” value [5, 29] was 98. The “Plant response rating, Kochia” value [5, 22] was 90, the “Plant response rating, Kochia” value [5, 23] was 95 and the “Plant response rating, Kochia” value [5, 24] was 100. The “Plant response rating, Kochia” value [5, 25] was 98, the “Plant response rating, Kochia” value [5, 26] was 90 and the “Plant response rating, Kochia” value [5, 27] was 20. For the same compound, the “Plant response rating, Kochia” value [5, 28] was 100, the “Plant response rating, Foxtail, Giant” value [6, 18] was 65 and the “Plant response rating, Foxtail, Giant” value [6, 19] was 50. The “Plant response rating, Foxtail, Giant” value [6, 20] was 30, the “Plant response rating, Foxtail, Giant” value [6, 21] was 95 and the “Plant response rating, Panicum, Fall” value [7, 29] was 65. For the same compound, the “Plant response rating, Panicum, Fall” value [7, 22] was 95, the “Plant response rating, Panicum, Fall” value [7, 23] was 75 and the “Plant response rating, Panicum, Fall” value [7, 24] was 98. The “Plant response rating, Panicum, Fall” value [7, 25] was 75, the “Plant response rating, Panicum, Fall” value [7, 26] was 70 and the “Plant response rating, Panicum, Fall” value [7, 27] was 90. For the same compound, the “Plant response rating, Panicum, Fall” value [7, 28] was 100, the “Plant response rating, Nightshade” value [8, 18] was 98 and the “Plant response rating, Nightshade” value [8, 19] was 98. For the same compound, the “Plant response rating, Nightshade” value [8, 20] was 90, the “Plant response rating, Nightshade” value [8, 21] was 100 and the “Plant response rating, Crabgrass, Brazil” value [9, 29] was 30. The “Plant response rating, Crabgrass, Brazil” value [9, 22] was 100, the “Plant response rating, Crabgrass, Brazil” value [9, 23] was 50 and the “Plant response rating, Crabgrass, Brazil” value [9, 24] was 100. For the same compound, the “Plant response rating, Crabgrass, Brazil” value [9, 25] was 50, the “Plant response rating, Crabgrass, Brazil” value [9, 26] was 20 and the “Plant response rating, Crabgrass, Brazil” value [9, 27] was 75. For the same compound, the “Plant response rating, Crabgrass, Brazil” value [9, 28] was 100, the “Plant response rating, Barnyardgrass” value [10, 29] was 40 and the “Plant response rating, Barnyardgrass” value [10, 22] was 15. The “Plant response rating, Barnyardgrass” value [10, 23] was 50, the “Plant response rating, Barnyardgrass” value [10, 24] was 30 and the “Plant response rating, Barnyardgrass” value [10, 25] was 50. For the same compound, the “Plant response rating, Barnyardgrass” value [10, 26] was 30, the “Plant response rating, Barnyardgrass” value [10, 27] was 0 and the “Plant response rating, Barnyardgrass” value [10, 28] was 40. The “Plant response rating, Corn” value [11, 29] was 0, the “Plant response rating, Corn” value [11, 22] was 0 and the “Plant response rating, Corn” value [11, 23] was 0. The “Plant response rating, Corn” value [11, 24] was 0, the “Plant response rating, Corn” value [11, 25] was 0 and the “Plant response rating, Corn” value [11, 26] was 0. For the same compound, the “Plant response rating, Corn” value [11, 27] was 0, the “Plant response rating, Corn” value [11, 28] was 5 and the “Plant response rating, Crabgrass, Large” value [12, 18] was 70. For the same compound, the “Plant response rating, Crabgrass, Large” value [12, 19] was 80, the “Plant response rating, Crabgrass, Large” value [12, 21] was 90 and the “Plant response rating, Ryegrass, Italian” value [13, 29] was 70. The “Plant response rating, Ryegrass, Italian” value [13, 22] was 95, the “Plant response rating, Ryegrass, Italian” value [13, 23] was 75 and the “Plant response rating, Ryegrass, Italian” value [13, 24] was 100. The “Plant response rating, Ryegrass, Italian” value [13, 25] was 80, the “Plant response rating, Ryegrass, Italian” value [13, 26] was 50 and the “Plant response rating, Ryegrass, Italian” value [13, 27] was 75. The “Plant response rating, Ryegrass, Italian” value [13, 28] was 100, the “Plant response rating, Foxtail, Green” value [14, 18] was 70 and the “Plant response rating, Foxtail, Green” value [14, 19] was 75. The “Plant response rating, Foxtail, Green” value [14, 20] was 20, the “Plant response rating, Foxtail, Green” value [14, 21] was 90 and the “Plant response rating, Goosegrass” value [15, 18] was 25. For the same compound, the “Plant response rating, Goosegrass” value [15, 19] was 70, the “Plant response rating, Goosegrass” value [15, 20] was 20 and the “Plant response rating, Goosegrass” value [15, 21] was 90. For the same compound, the “Plant response rating, Lambsquarters” value [16, 18] was 75, the “Plant response rating, Lambsquarters” value [16, 19] was 100 and the “Plant response rating, Lambsquarters” value [16, 20] was 98. For the same compound, the “Plant response rating, Lambsquarters” value [16, 21] was 100, the “Plant response rating, Horseweed” value [17, 29] was 70 and the “Plant response rating, Horseweed” value [17, 22] was 100. The “Plant response rating, Horseweed” value [17, 23] was 75, the “Plant response rating, Horseweed” value [17, 24] was 100 and the “Plant response rating, Horseweed” value [17, 25] was 80. For the same compound, the “Plant response rating, Horseweed” value [17, 26] was 60, the “Plant response rating, Horseweed” value [17, 27] was 90 and the “Plant response rating, Horseweed” value [17, 28] was 100.
